# Measurements from US12629364B2, “Methods of treating cancers overexpressing CARM1 with EZH2 inhibitors and platinum-based antineoplastic drugs” (The Wistar Institute of Anatomy and Biology, priority 2016, dated 2026).
# How the values were obtained:
# [1] = system: tumors formed by CARM1 knockout A1847 cells; experiment: Subcutaneous xenograft, CARM1 knockout A1847 cells; assay type: in vivo, NSG mice; settings: 50 mg/kg daily
# Protocol: FIGS. 73 to 75 illustrate that EZH2 inhibition suppressed the growth of CARM1-expressing ovarian tumors in vivo. FIG. 73 illustrates images of tumors dissected from control or GSK126 treated mice. CARM1-high A1847 cells were injected subcutaneously into immunocompromised NSG mice (n=5/group). Tumors were allowed to establish for one week before the mice were randomized into two different treatment groups. Mice were treated with vehicle control or GSK126 (50 mg/kg daily) for an additional three weeks. At the end of treatment, the mice were euthanized. Bar=1 cm. FIG. 74 illustrates a difference in tumor size measured as a surrogate for tumor burden from the control and GSK 126 treated mice at the indicated time point. FIG. 75 illustrates a difference in tumor weight measured as a surrogate for tumor burden from control and GSK 126-treated mice. The mice were injected with CARM1 knockout A1847 cells.
# The protocols were approved by the Institutional Animal Care and Use Committee (IACUC). 5×10^6 control A1847 or A1847 CARM1 knockout cells were unilaterally injected subcutaneously into 6-8-week old female immunocompromised NSG mice (n=5 per group). […] Tumor size was measured every 3 days for 3 weeks. At end of the experiments, tumors were surgically dissected and tumor burden was calculated based on tumor weight.
# [2] = system: A1847 parental and CARM1 knockout cells; experiment: Epigenetic targeting small molecule set screen (14-day colony formation); assay type: cell-based, Human; settings: A1847 parental vs CARM1 knockout; 14 days; normalized to vehicle
# Protocol: FIG. 26 illustrates that CARM1-expressing cells are selectively sensitized to EZH2 inhibitors. Equal number of parental control or CARM1 knockout […] cells were plated and treated with each of the 23 individual epigenetic inhibitors for 14 days. The media with the inhibitors was refreshed every 3 days. Cell growth was quantified as integrated density using NIH Image J software. Quantification of the average integrated density graphed as a scatter plot. The X-axis indicates the relative growth of treated CARM1 high parental […] cells compared with DMSO vehicle controls. Y-axis indicates the relative growth of treated CARM1 knockout […] cells compared with DMSO vehicle controls. n=4; and error bars represents SEM. FIG. 27 illustrates a table of EZH2 inhibitors that are selective against CARM1 expression. CARM1-high parental controls and CARM1 knockout […] cells were treated with the indicated concentration of the small molecules in a 14-day colony formation assay. Integrated density for each well was calculated using NIH Image J software. The relative growth of the indicated cells was determined by normalizing to the vehicle control treated cells. n=4 and p-value was calculated using a two-tailed t-test. FIG. 28 illustrates representative images of colonies formed by the cells treated with the indicated inhibitors. GSK126 and UNC1999 representative positive hits from the screen. […] parental and CARM1 knockout cells were plated in 24-well plates and treated with 24 epigenetic compounds. Cell medium was changed every three days with appropriate drug doses for 14 days or until control wells became confluent. Colonies were washed twice with PBS and fixed with 10% methanol and 10% acetic acid in distilled water. Fixed colonies were stained with 0.005% crystal violet. Integrated density was measured using NIH ImageJ software as a surrogate for cell growth.
# [3] = system: CARM1-expressing A1847 tumors; experiment: Intrabursal orthotopic xenograft, CARM1-expressing A1847 cells; assay type: in vivo, NSG mice; settings: 50 mg/kg daily i.p., three weeks
# Protocol: FIG. 76 illustrates images of reproductive tracks with tumors from control or GSK126 treated mice. CARM1-high A1847 ovarian cancer cells were unilaterally injected into the ovarian bursa sac of immunocompromised mice (n=5/group). Tumors were allowed to establish for one week before the mice were randomized into two different treatment groups. Mice were treated with vehicle control or GSK126 (50 mg/kg daily) for an additional three weeks. At the end of treatment, the mice were euthanized.
# FIG. 77 illustrates tumor weights for the tumors described in FIG. 76. Tumor weight was measured as a surrogate for tumor burden from the control and GSK126 treated mice.
# FIG. 78 illustrates the percent survival for the animals treated in FIG. 76. After stopping treatment, the mice from the indicated groups were followed for survival. […] P-value was calculated by log-rank test.
# The protocols were approved by the Institutional Animal Care and Use Committee (IACUC). For in vivo experiments, the sample size of 5 mice per group was determined based on the data shown from in vitro experiments. […] At the end of the experiments, tumors were surgically dissected and tumor burden was calculated based on tumor weight. For survival experiments, after stopping the treatment, the mice were followed for mortality or when the tumor burden reached 10% of body weight as determined by The Wistar Institute IACUC guideline.
# [4] = system: CARM1-expressing cell lines (A1847, OVCAR10, and PEO4); experiment: Colony formation assay / GSK126 response curves, CARM1-expressing ovarian cancer cell lines; assay type: cell-based, Human
# Source text: FIG. 5 illustrates the results of a colony formation assay with a panel of normal and ovarian cancer cell lines in the presence of GSK126.
# FIG. 7 illustrates GSK 126 response curves in a panel of normal and ovarian cancer cell lines. Error bars indicate standard error (S.E.) for n=3. *, p≤0.05.
# FIG. 8 illustrates IC50 results for the panel of normal and ovarian cancer cell lines.
# FIG. 33 illustrates relative growth of the indicated HOSE, FTE, and EOC cancer cell lines with high or low CARM1 expression treated with 10 μM GSK126 or vehicle in a colony formation assay as determined by NIH Image J quantification.
# 500 to 5,000 cell were plated into a 24 well tissue culture plate and treated with the indicated compounds. Medium was changed every three days with appropriate drug doses for 12 days or until control wells became confluent. Colonies were washed twice with PBS and fixed with 10% methanol and 10% acetic acid in distilled water. Fixed colonies were stained with 0.005% crystal violet. Integrated density was measured using NIH ImageJ software.
compound,measurement,setting,value
"CC[C@H](C)n1cc(C)c2c(C(=O)NCc3c(C)cc(C)[nH]c3=O)cc(-c3ccc(N4CCNCC4)nc3)cc21 [GSK126, (S)-1-(sec-butyl)-N-((4,6-dimethyl-2-oxo-1,2-dihydropyridin-3-yl)methyl)-3-methyl-6-(6-(piperazin-1-yl)pyridin-3-yl)-1H-indole-4-carboxamide]",tumor growth,[1],failed to inhibit the growth
same,selective growth suppression of CARM1-expressing versus CARM1 KO cells,[2],showed selectivity against CARM1-expressing cells
same,tumor growth (tumor weight),[3],significantly inhibited
same,relation of CARM1 expression level and cellular response,"[4]; 10 μM, panel of EOC cell lines",correlation between CARM1 expression levels and cellular response
same,IC50 values from response curves,"[4]; CARM1-expressing cell lines (A1847, OVCAR10, PEO4) versus panel of normal and ovarian cancer cell lines, values only in FIG. 8",Significantly reduced IC50 values
